According to patent publication US10172957B2, “Acid-labile lipophilic prodrugs of cancer chemotherapeutic agents” (priority 2011, dated 2019):

How the values were obtained:
CEM/VM-1-5 cells (MDR+) = assay: cells; type: cell-based, human; details: for IC50: Homo sapiens, read-out: IC50 CEM/VM-1-5 (MDR + HTL), CEM/VM-1-5, MTT; for Degree of resistance (CEM/VM-1-5): IC50 of the resistant line divided by IC50 of sensitive CEM cells
Source text: A second evaluation of the cytotoxicity of the acid labile, lipophilic molecular conjugates was undertaken. […]
The second set of cells tested, CCRF-CEM or simply CEM, were derived from the blood of a patient with acute lymphoblastic leukemia. G. E. Foley, H. Lazarus, S. Farber, B. G. Uzman, B. A. Boone, and R E. McCarthy. Continuous culture of human lymphoblasts from peripheral blood of a child with acute leukemia. Cancer 18: 522-529 (1965). The subline CEM/VLB100 was developed to be resistant to up to vinblastine at 100 ng/ml. W. T. Beck, T. J. Mueller, and L. R. Tanzer. Altered surface membrane glycoproteins in Vinca alkaloid-resistant human leukemic lymphoblasts. Cancer Research 39: 2070-2076 (1979). Drug resistance is achieved by overexpression of the MDR1 gene. Resistance in the CEM subline designated CEM/VM-1-5, however, is “atypical.” M. K. Danks, J. C. Yalowich, and W. T. Beck. Atypical multiple drug resistance in a human leukemic cell line selected for resistance to teniposide (VM-26). Cancer Research 47: 1297-1301 (1987). The classes of drugs included in the “classic” multiple drug resistance phenotype are Vinca alkaloids, anthracyclines, epipodophyllotoxins and antibiotics. However, CEM/VM-1-5 cells retain sensitivity to the Vinca alkaloids despite resistance and cross-resistance to etoposide, anthracyclines and mitoxantrone. Danks, M. K.; Schmidt, C. A.; Cirtain, M. C.; Suttle, D. P.; Beck, W. T., Altered catalytic activity of and DNA cleavage by DNA topoisomerase II from human leukemic cells selected for resistance to VM-26. Biochemistry 1988, 27, 8861-8869. Resistance in CEM/VM-1-5 cells is effected by over expression of the […]. CEM, CEM/VLB100 and CEM/VM-1-5 cells were obtained from Dr. WT Beck, University of Illinois at Chicago.

[1] = tested on: MES-SA/Dx5 doxorubicin-resistant subline (MDR+); assay: cells; type: cell-based, human; details: for IC50: Homo sapiens, MES-SA/Dx5, read-out: IC50 MESSA/Dx5 (MDR + Hs); for Degree of resistance (MESSA/Dx5): IC50 of the resistant line divided by IC50 of sensitive MES-SA cells
Source text: A second evaluation of the cytotoxicity of the acid labile, lipophilic molecular conjugates was undertaken.
These lines included a uterine sarcoma line, MES-SA, and its doxorubicin-resistant subline, MES-SA/Dx5. See W. G. Harker, F. R MacKintosh, and B. I. Sikic. Development and characterization of a human sarcoma cell line, MES-SA, sensitive to multiple drugs. Cancer Research 43: 4943-4950 (1983); W. G. Harker and B. I. Sikic. Multidrug (pleiotropic) resistance in doxorubicin-selected variants of the human sarcoma cell line MES-SA. Cancer Research 45: 4091 4096 (1985).
MES-SA/Dx5 cells express high levels of ABCB1 (MDR1) mRNA and its gene product, the P-glycoprotein. MES-SA and MES-SA/Dx5 were purchased from the American Type Culture Collection (ATCC, Manassas, Va.).

[2] = Stability in human plasma when added in a lipid emulsion (Liposyn); type: in vitro ADME; details: 37° C.
Description: HPLC grade Methanol from Fisher (Fair lawn, NJ, USA). Part No: A452-4 (074833). HPLC grade Water from Fisher (Fair lawn, NJ, USA). Part No: W5-4 (073352). Drug-free mouse, rat and human plasmas were purchased from Innovative Research Inc. (Southfield, Mich., USA). LIPOSYN® I.V. (30% soybean oil and egg yolk phospholipids, Abbott Laboratories) Fat Emulsion from Hospira, Inc. (Lake Forest, Ill.).
Chromatographic separation of the compounds was performed on a Waters Acquity UPLC™ using a BEH C18 column (1.7 μm, 2.1×50 mm). The mobile phase consisted of Methanol: 0.1% Formic acid (80:20). The flow rate was 0.3 ml/min; the sample injection volume was 5 μL, resulting in a 3 minute run time.
The MS instrumentation consisted of a Waters Micromass Quattro Micro™ triple-quadrupole system (Manchester, UK). The MS system was controlled by a 4.0 version of MassLynx software. Ionization was performed in the positive electrospray ionization mode. MS/MS conditions were the following: capillary voltage 3.02 kV; cone voltage 50 v; extractor voltage 5 v; and RF lens voltage 0.5 v. The source and desolvation temperatures were 100° C. and 400° C. respectively, and the desolvation and cone gas flow were 400 and 30 L/hr, respectively.
The selected mass-to-charge (m/z) ratio transitions of the ART 198 used in the selected ion monitoring (SIM) were: for ART 198, 617 (M+K)^+, for ART 273, 589 (M+K)^+, for ART 488, 913 (M+Na)^+, and for ART 489, 957 (M+Na)^+. The dwell time was set at 200 msec. MS conditions were optimized using direct infusion of standard solutions prepared in methanol and delivered by a syringe pump at a flow rate of 20 μL/min.
Samples of 100 μL were collected at time points of 0, 15, 30, 45, 60, 75, 90, 105, 120, 135, 150, 165, 180, 210, 240, 300, 360 and 480 minutes respectively and the reaction was terminated with methanol. In a separate set of experiments the acid labile, lipophilic molecular conjugates were dissolved in a small amount of ethanol and diluted into a lipid emulsion (Liposyn®) and added to mouse and human plasma before incubation and the hydrolysis of the conjugates was similarly measured. Collected plasma samples of 100 μL containing drug were placed in separate Eppendorf micro centrifuge tubes for processing. Methanol (200 μL) was added to extract the drug using the protein precipitation technique. The micro tubes were then vortex mixed for 10 minutes and centrifuged for 15 minutes at a speed of 10,000 rpm (Eppendorf 5415C centrifuge). The supernatant was collected and filtered using a 0.45 μm filter (Waters 13 mm GHP 0.45 μm) before analysis.
Samples were collected at various times and the percent remaining of the acid labile, lipophilic molecular conjugate of the cancer chemotherapeutic agent was determined along with the percent of the chemotherapeutic agent released from the hydrolysis of the conjugate.

Compound | IC50 (CEM/VM-1-5 cells (MDR+)) [nM] | Degree of resistance (CEM/VM-1-5) (CEM/VM-1-5 cells (MDR+)) | IC50 [1] [nM] | Degree of resistance (MESSA/Dx5) [1] | percent remaining of initial drug ([2]; 0 min) [%] | percent remaining of initial drug ([2]; 15 min) [%] | percent remaining of initial drug ([2]; 30 min) [%] | percent remaining of initial drug ([2]; 45 min) [%] | percent remaining of initial drug ([2]; 60 min) [%] | percent remaining of initial drug ([2]; 75 min) [%] | percent remaining of initial drug ([2]; 90 min) [%] | percent remaining of initial drug ([2]; 105 min) [%] | percent remaining of initial drug ([2]; 120 min) [%] | percent remaining of initial drug ([2]; 135 min) [%] | percent remaining of initial drug ([2]; 150 min) [%] | percent remaining of initial drug ([2]; 165 min) [%] | percent remaining of initial drug ([2]; 180 min) [%] | percent remaining of initial drug ([2]; 210 min) [%] | percent remaining of initial drug ([2]; 240 min) [%] | percent remaining of initial drug ([2]; 300 min) [%] | also measured
COC(=O)[C@@]12OC[C@]34[C@H]([C@@H](O)[C@@H]1O)[C@@]1(C)CC(=O)C(O)=C(C)[C@@H]1C[C@H]3OC(=O)C(OC(=O)CC1(O)CCCCC1)[C@@H]24 (stereo partly drawn) [ART 198] | 308 ± 10 | 3 ± 1 | 376 ± 110 | 7.9 ± 0.6 | – | – | – | – | – | – | – | – | – | – | – | – | – | – | – | – | –
CCCCCCCCCCCCCCCC1OCC(COC(=O)O[C@@H]2C(=O)C=C(C)[C@@H]3C[C@H]4OC(=O)C(OC(=O)CC(O)(C(C)C)C(C)C)C5[C@@H](C)[C@@H](O)[C@@]6(O)OC[C@@]54C6[C@@]23C)O1 (stereo partly drawn) [ART 488] | 8 ± 4 | 2 ± 1 | 7 ± 5.7 | 4.3 ± 1.8 | 100 | 98.3 | 97.3 | 96.1 | 95.8 | 95.3 | 95.6 | 94.6 | 94.5 | 92.5 | 92.2 | 91.9 | 91.0 | 91.0 | 90.7 | 90.7 | percent remaining of initial drug ([2]; 360 min): 90.2%; percent remaining of initial drug ([2]; 480 min): 88.1%
CCCCCCCCCCCCCCCC1OCC(COC(=O)OC2=C(C)[C@@H]3C[C@H]4OC(=O)C(OC(=O)CC5(O)CCCCC5)[C@H]5[C@]6(C(=O)OC)OC[C@]45[C@H]([C@@H](O)[C@@H]6O)[C@@]3(C)CC2=O)O1 (stereo partly drawn) [ART 489] | 24 ± 4 | 1.2 ± 0.07 | 17 ± 5.7 | 4.3 ± 3.8 | 100 | 98.4 | 93.9 | 92.7 | 88.2 | 87.9 | 87.5 | 86.4 | 86.4 | 84.7 | 84.6 | 83.7 | 82.9 | 82.0 | 81.4 | 80.2 | percent remaining of initial drug ([2]; 360 min): 78.2%; percent remaining of initial drug ([2]; 480 min): 76.6%
